From publication PMC5562448 (Chembiochem : a European journal of chemical biology, 2017)

Legend:
HSPA8 = HSPA8 (Homo sapiens, UniProt P11142); test: isothermal titration calorimetry; type: binding; conditions: n=1.1
HSPA1A = HSPA1A (Homo sapiens, UniProt P0DMV8); test: isothermal titration calorimetry; type: binding; conditions: n=0.9
HSPA1A, sequence (P0DMV8 2-641): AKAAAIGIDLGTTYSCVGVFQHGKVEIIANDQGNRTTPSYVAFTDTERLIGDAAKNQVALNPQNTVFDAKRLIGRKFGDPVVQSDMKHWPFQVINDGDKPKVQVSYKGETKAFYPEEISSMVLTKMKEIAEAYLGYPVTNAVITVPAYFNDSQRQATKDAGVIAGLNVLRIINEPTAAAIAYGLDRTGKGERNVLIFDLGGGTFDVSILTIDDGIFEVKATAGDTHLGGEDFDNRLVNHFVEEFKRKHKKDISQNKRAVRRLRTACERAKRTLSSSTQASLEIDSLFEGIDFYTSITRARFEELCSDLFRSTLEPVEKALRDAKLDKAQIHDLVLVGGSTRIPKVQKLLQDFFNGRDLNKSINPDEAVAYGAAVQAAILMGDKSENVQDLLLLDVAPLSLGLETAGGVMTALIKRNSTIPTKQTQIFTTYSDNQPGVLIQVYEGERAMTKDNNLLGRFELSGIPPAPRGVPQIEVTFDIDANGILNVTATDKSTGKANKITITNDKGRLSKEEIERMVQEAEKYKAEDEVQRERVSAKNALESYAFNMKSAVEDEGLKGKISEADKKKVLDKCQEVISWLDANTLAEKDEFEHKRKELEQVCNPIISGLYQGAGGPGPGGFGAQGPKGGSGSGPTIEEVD

HSPA8, sequence (P11142 2-646): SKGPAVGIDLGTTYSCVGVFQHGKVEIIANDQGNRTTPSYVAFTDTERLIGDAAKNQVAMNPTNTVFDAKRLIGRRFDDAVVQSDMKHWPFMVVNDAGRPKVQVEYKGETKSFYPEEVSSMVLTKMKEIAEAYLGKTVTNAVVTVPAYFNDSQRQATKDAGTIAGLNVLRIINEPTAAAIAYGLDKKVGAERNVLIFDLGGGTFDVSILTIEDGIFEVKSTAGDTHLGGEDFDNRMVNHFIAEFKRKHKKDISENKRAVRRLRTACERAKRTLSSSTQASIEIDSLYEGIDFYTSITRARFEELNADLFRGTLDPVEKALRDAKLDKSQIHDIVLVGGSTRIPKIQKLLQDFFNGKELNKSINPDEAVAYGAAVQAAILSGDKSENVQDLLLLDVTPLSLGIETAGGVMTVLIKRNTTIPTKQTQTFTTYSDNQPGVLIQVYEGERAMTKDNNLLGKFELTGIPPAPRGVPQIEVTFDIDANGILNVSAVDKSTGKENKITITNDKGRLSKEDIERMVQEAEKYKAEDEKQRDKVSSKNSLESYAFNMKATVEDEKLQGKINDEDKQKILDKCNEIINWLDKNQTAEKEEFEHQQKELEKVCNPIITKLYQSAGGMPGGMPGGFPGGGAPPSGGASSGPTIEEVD

C[C@@H]1[C@]2(O[C@H]3C=C4[C@@H]5CC[C@H]6Cc7nc8c(nc7C[C@]6(C)[C@H]5C[C@@H](O)[C@]4(C)[C@]31O)C[C@@H]1CC[C@H]3C4=C[C@@H]5O[C@]6(CCC(C)(C)O6)[C@@H](C)[C@@H]5[C@@]4(C)[C@H](O)C[C@@H]3[C@@]1(C)C8)O[C@](C)(CO)C[C@H]2O [compound 3, ritterostatin GN1N]
Kd (HSPA8): 1630 nM
Kd (HSPA1A): 625 nM
